Reference: ChEMBL document CHEMBL4477199, “Design and synthesis of novel bicalutamide and enzalutamide derivatives as antiproliferative agents for the treatment of prostate cancer” (Eur J Med Chem, 2016)

Tests used:
CWR22R [1] = assay: Antiproliferative activity against human 22Rv1 cells after 96 hrs by propidium iodide staining based fluorescence 2D monolayer assay; format: functional, cell-based; conditions: 22Rv1, 96 h
DU-145 [2] = assay: Antiproliferative activity against human DU145 cells after 96 hrs by propidium iodide staining based fluorescence 2D monolayer assay; format: functional, cell-based; conditions: DU-145, 96 h
LNCaP [3] = assay: Antiproliferative activity against human LNCAP cells after 96 hrs by propidium iodide staining based fluorescence 2D monolayer assay; format: functional, cell-based
VCaP [4] = assay: Antiproliferative activity against human VCaP cells after 96 hrs by propidium iodide staining based fluorescence 2D monolayer assay; format: functional, cell-based
[5] = target: T1, Androgen receptor (Rattus norvegicus) (UniProt P15207); assay: (§1) Antagonist activity at rat androgen receptor fused with DNA-binding domain of GAL4 expressed in AR-UAS-bla GripTite 293 cells assessed as inhibition of R1881-induced receptor activation preincubated for 30 mins followed by R1881 addition measured after 16 to 24 hrs by betalactamase reporter gene assay; format: cell-based
T1 sequence (whole entry): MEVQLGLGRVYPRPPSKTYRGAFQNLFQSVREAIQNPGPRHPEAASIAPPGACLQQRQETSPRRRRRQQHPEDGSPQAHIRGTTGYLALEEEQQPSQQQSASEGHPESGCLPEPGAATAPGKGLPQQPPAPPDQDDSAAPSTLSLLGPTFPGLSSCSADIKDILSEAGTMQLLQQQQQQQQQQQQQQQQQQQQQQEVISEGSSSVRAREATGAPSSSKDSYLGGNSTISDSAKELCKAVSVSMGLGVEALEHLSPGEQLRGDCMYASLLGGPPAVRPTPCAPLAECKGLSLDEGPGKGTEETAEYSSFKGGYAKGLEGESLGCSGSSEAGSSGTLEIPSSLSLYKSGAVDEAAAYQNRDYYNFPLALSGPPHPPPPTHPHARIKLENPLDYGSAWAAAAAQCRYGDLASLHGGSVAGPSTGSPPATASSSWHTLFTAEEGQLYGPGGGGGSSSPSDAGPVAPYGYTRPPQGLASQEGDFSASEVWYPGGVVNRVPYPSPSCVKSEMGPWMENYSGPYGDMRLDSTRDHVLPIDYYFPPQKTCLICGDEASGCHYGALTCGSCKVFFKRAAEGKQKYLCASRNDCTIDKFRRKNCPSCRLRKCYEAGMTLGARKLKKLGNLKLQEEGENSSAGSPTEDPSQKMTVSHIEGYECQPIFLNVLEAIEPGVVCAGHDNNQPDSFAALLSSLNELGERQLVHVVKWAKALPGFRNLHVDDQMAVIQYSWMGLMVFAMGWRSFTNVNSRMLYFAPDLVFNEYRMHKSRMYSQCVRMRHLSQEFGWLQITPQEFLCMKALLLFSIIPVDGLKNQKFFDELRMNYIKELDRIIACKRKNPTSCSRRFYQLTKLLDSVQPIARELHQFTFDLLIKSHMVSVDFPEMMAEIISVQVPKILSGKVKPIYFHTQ

Androgen receptor = target: T2, Androgen receptor (Rattus norvegicus, UniProt P15207); assay: as §1; format: cell-based
T2 sequence (P15207 whole entry): T1 sequence (whole entry)

[6] = 96 h
Description: Solubility in RPMI1640 culture medium at <30 uM incubated for 4 days by microscopic analysis

[7] = 33000 µM
Description: Solubility in 100% DMSO at 33 mM at -20 degC

LNCaP [8] = assay: Antiproliferative activity against human LNCAP cells assessed as relative inhibition after 96 hrs by propidium iodide staining based fluorescence 2D monolayer assay; format: functional, cell-based
DU-145 [9] = assay: Antiproliferative activity against human DU145 cells assessed as relative inhibition after 96 hrs by propidium iodide staining based fluorescence 2D monolayer assay; format: functional, cell-based; conditions: DU-145, 96 h
CWR22R [10] = assay: Antiproliferative activity against human 22Rv1 cells assessed as relative inhibition after 96 hrs by propidium iodide staining based fluorescence 2D monolayer assay; format: functional, cell-based; conditions: 22Rv1, 96 h
VCaP [11] = assay: Antiproliferative activity against human VCaP cells assessed as relative inhibition after 96 hrs by propidium iodide staining based fluorescence 2D monolayer assay; format: functional, cell-based
[12] = Half life in human liver microsomes at 3 uM preincubated with compound followed by NADPH addition by LC-MS/MS analysis
[13] = Apparent permeability from apical to basolateral side in human Caco2 cells at 10 uM incubated for 120 mins by LC-MS/MS analysis; conditions: Caco-2
[14] = Apparent permeability from basolateral to apical side in human Caco2 cells at 10 uM incubated for 120 mins by LC-MS/MS analysis; conditions: Caco-2
[15] = Efflux ratio of apparent permeability from basolateral to apical side over apical to basolateral side in human Caco2 cells at 10 uM incubated for 120 mins by LC-MS/MS analysis; conditions: Caco-2
HepG2 = assay: Cytotoxicity against human HepG2 cells assessed as reduction in cell viability after 72 hrs by MTT assay; format: functional, cell-based; conditions: HepG2, 72 h; for minimal effective concentration: read-out: MEC
in vitro = conditions: human

SMILES	IC50 (CWR22R [1]) [µM]	IC50 (DU-145 [2]) [µM]	IC50 (LNCaP [3]) [µM]	IC50 (VCaP [4]) [µM]	inhibition [5]	IC50 (Androgen receptor) [µM]	solubility [6]	solubility [7]	other results
CC(O)(COc1ccccc1OC(F)(F)F)C(=O)Nc1ccc([N+](=O)[O-])c(C(F)(F)F)c1 (stereo unspecified)	6.6	9.88	7.04	9.61	Dose-dependent effect	0.198	Soluble	Soluble	–
CC(O)(COc1cccc(OC(F)(F)F)c1)C(=O)Nc1ccc([N+](=O)[O-])c(C(F)(F)F)c1 (stereo unspecified)	9.31	13.1	9.95	9.6	Dose-dependent effect	0.407	Soluble	Soluble	–
CC1(C)C(=O)N(c2ccc(C(F)(F)F)cc2)C(=O)N1c1ccc(C#N)cc1C(F)(F)F	100	100	8.36	100	Dose-dependent effect	0.402	Soluble	Soluble	–
CC(O)(CSc1ccccc1OC(F)(F)F)C(=O)Nc1ccc([N+](=O)[O-])cc1C(F)(F)F (stereo unspecified)	4.64	6.57 to 6.58	3.31	5.27	–	–	Soluble	Soluble	IC70 (CWR22R [1]): 6.31 µM; IC70 (DU-145 [2]): 8.16 µM; IC70 (LNCaP [3]): 3.61 µM; IC70 (VCaP [4]): 13.8 µM; IC50 (LNCaP [8]): 3.28 µM; IC70 (LNCaP [8]): 3.55 µM; IC50 (DU-145 [9]): 6.16 µM; IC70 (DU-145 [9]): 7.59 µM; IC50 (CWR22R [10]): 4.47 µM; IC70 (CWR22R [10]): 5.88 µM; IC50 (VCaP [11]): 4.66 µM; IC70 (VCaP [11]): 9.39 µM
CC(O)(COc1ccc(C#N)cc1C(F)(F)F)C(=O)Nc1ccc(C#N)cc1C(F)(F)F (stereo unspecified)	18.4	27.5	9.39	17.7	Dose-dependent effect	0.736	Soluble	Soluble	–
CC(O)(COc1ccc(OC(F)(F)F)cc1)C(=O)Nc1ccc([N+](=O)[O-])c(C(F)(F)F)c1 (stereo unspecified)	7.53	10.4	17.7	19.6	Dose-dependent effect	0.625	Soluble	Soluble	–
CC1(C)C(=O)N(c2cccc(C(F)(F)F)c2)C(=O)N1c1ccc([N+](=O)[O-])cc1C(F)(F)F	5.01	7.88	4.07	13.3	Dose-dependent effect	0.111	Soluble	Soluble	–
C[C@](O)(CSc1cccc(C(F)(F)F)c1)C(=O)Nc1ccc(C#N)c(C(F)(F)F)c1	13.1	19.4	14.3	8.91	–	–	Soluble	Soluble	half-life at 3 µM ([12]; microsomes): 4.59 min; Papp A→B at 2 h, 10 µM [13]: 6.84 ×10⁻⁶ cm/s; Papp B→A at 2 h, 10 µM [14]: 12.2 ×10⁻⁶ cm/s; efflux ratio at 2 h, 10 µM [15]: 1.78; AC50 (HepG2): 34.6 µM; minimal effective concentration (HepG2): 26.6 µM; microsomal CLint at 3 µM (in vitro; microsomes): 302 µL/min/mg
CC(O)(CSc1ccccc1C(F)(F)F)C(=O)Nc1ccc(C#N)c(C(F)(F)F)c1 (stereo unspecified)	5.06	7.73	4.91	7.51	Dose-dependent effect	0.425	–	–	half-life at 3 µM ([12]; liver microsomes): 3.66 min; AC50 (HepG2): 25.8 µM; minimal effective concentration (HepG2): 14.7 µM; microsomal CLint at 3 µM (in vitro; liver microsomes): 379 µL/min/mg
CC(O)(CSc1cccc(C(F)(F)F)c1)C(=O)Nc1ccc(C#N)c(C(F)(F)F)c1 (stereo unspecified)	5.56	10.6	5.03	9.23	–	–	Soluble	Soluble	half-life at 3 µM ([12]; microsomes): 5.97 min; Papp A→B at 2 h, 10 µM [13]: 3.92 ×10⁻⁶ cm/s; Papp B→A at 2 h, 10 µM [14]: 4.73 ×10⁻⁶ cm/s; efflux ratio at 2 h, 10 µM [15]: 1.21; AC50 (HepG2): 36.6 µM; minimal effective concentration (HepG2): 18.4 µM; microsomal CLint at 3 µM (in vitro; microsomes): 232 µL/min/mg
CC(O)(CS(=O)(=O)c1ccc(OC(F)(F)F)cc1)C(=O)Nc1ccc([N+](=O)[O-])cc1C(F)(F)F (stereo unspecified)	≥ 100	≥ 100	≥ 100	≥ 100	–	–	Soluble	Soluble	IC70 (CWR22R [1]): > 100 µM; IC70 (DU-145 [2]): > 100 µM; IC70 (LNCaP [3]): > 100 µM; IC70 (VCaP [4]): > 100 µM; IC50 (LNCaP [8]): > 100 µM; IC70 (LNCaP [8]): > 100 µM; IC50 (DU-145 [9]): > 100 µM; IC70 (DU-145 [9]): > 100 µM; IC50 (CWR22R [10]): > 100 µM; IC70 (CWR22R [10]): > 100 µM; IC50 (VCaP [11]): > 100 µM; IC70 (VCaP [11]): > 100 µM
CC(C)NCC(O)COc1cccc2ccccc12 (stereo unspecified) [PROPRANOLOL]	–	–	–	–	–	–	–	–	Papp A→B at 2 h, 10 µM [13]: 40.3 ×10⁻⁶ cm/s; Papp B→A at 2 h, 10 µM [14]: 41.6 ×10⁻⁶ cm/s; efflux ratio at 2 h, 10 µM [15]: 1.03
CC1(C)C(=O)N(c2ccc(C(F)(F)F)cc2)C(=O)N1c1ccc([N+](=O)[O-])cc1C(F)(F)F	16.4	100	3.73	100	Dose-dependent effect	0.265	Soluble	Soluble	–
CC1(C)C(=O)N(c2cccc(C(F)(F)F)c2)C(=O)N1c1cccc(C(F)(F)F)c1	60.7	100	5.61	75.7	Dose-dependent effect	0.123	Soluble	Soluble	–
CC(O)(CS(=O)(=O)c1ccc(F)cc1)C(=O)Nc1ccc(C#N)c(C(F)(F)F)c1 (stereo unspecified) [BICALUTAMIDE]	49.6	49.2	45.3	68.4	–	–	–	–	IC70 (CWR22R [1]): 65.1 µM; IC70 (DU-145 [2]): 61.3 µM; IC70 (LNCaP [3]): 59.1 µM; IC70 (VCaP [4]): > 100 µM; IC50 (LNCaP [8]): 47.3 µM; IC70 (LNCaP [8]): 60.9 µM; IC50 (DU-145 [9]): 46 µM; IC70 (DU-145 [9]): 58.3 µM; IC50 (CWR22R [10]): 48.5 µM; IC70 (CWR22R [10]): 64.1 µM; IC50 (VCaP [11]): 64.7 µM; IC70 (VCaP [11]): 97.3 µM
CC(O)(CSc1ccccc1C(F)(F)F)C(=O)Nc1ccc([N+](=O)[O-])cc1C(F)(F)F (stereo unspecified)	12	17.5	11.7	12.8	Dose-dependent effect	0.332	Soluble	Soluble	–
CC(O)(COc1ccccc1C(F)(F)F)C(=O)Nc1ccc([N+](=O)[O-])c(C(F)(F)F)c1 (stereo unspecified)	20.2	35.2	22.6	27.2	Dose-dependent effect	0.183	Soluble	Soluble	–
O=C(Nc1ccc([N+](=O)[O-])c(C(F)(F)F)c1)C(O)(CSc1ccccc1C(F)(F)F)C(F)(F)F (stereo unspecified)	1.28	2.4	0.719 to 0.72	2.78	Dose-dependent effect	0.245	Soluble	Soluble	IC70 (CWR22R [1]): 1.7 µM; IC70 (DU-145 [2]): 2.76 µM; IC70 (LNCaP [3]): 1.2 µM; IC70 (VCaP [4]): 5.73 µM; IC50 (LNCaP [8]): 0.828 µM; IC70 (LNCaP [8]): 1.33 µM; IC50 (DU-145 [9]): 2.36 µM; IC70 (DU-145 [9]): 2.7 µM; IC50 (CWR22R [10]): 1.27 µM; IC70 (CWR22R [10]): 1.65 µM; IC50 (VCaP [11]): 2.43 µM; IC70 (VCaP [11]): 4.8 µM
